Source: US12590130B2, “Bipartite molecules and uses thereof in treating diseases associated with abnormal protein aggregates” (ACADEMIA SINICA, priority 2014, dated 2026)

Assays:
[1] = test system: 109QmHtt; assay: Filter trap assay of aggregated 109QmHtt in Neuro2a cells; assay type: cell-based
Description: (§1) FIG. 4. Testing the ability of therapeutic peptides to decrease mHtt aggregation in Neuro2a cells overexpressing mHtt. Panel A: Filter trap assays and corresponding quantitation of cells (panel B) treated as indicated at 8 hours (T1), 24 hours (T2), or both (T1+2) after transfection with the 109QmHtt construct. […] Panel C: Western blots and quantitation (panel D) of RIPA-soluble (sol) and -insoluble (ins) fractions of Neuro2a cells overexpressing 25QHtt or 109QmHtt and treated as indicated. […] Panel E: Western blot of the 109QmHtt in cells treated as indicated. Note that MG132 blocked the effect of 8R10Q peptide with respect to decreasing insoluble 109QmHtt. Panel F: Quantitation of ratio of 109QmHtt in cells treated MG132 (+) over DMSO (−) in relationship to peptides. Statistical analysis conducted with one way ANOVA, *<0.05, **<0.01, ***<0.001, ns: not significant.
Whether the peptides could modulate the aggregation propensity of mHtt was next investigated.

[2] = test system: R6/2 transgenic mice; assay: Therapeutic effect in R6/2 transgenic mice (function, blood sugar, lifespan); assay type: in vivo, mouse
Excerpt: FIG. 6. 8R10Q ameliorated functional deterioration of R6/2 transgenic mice. Panel A: Longitudinal rotarod performance of wild type (WT) and R6/2 mice treated with PBS or 8R10Q peptide. Note the significant delay in motor deterioration of R6/2 mice treated with 8R10Q from 11 weeks of age. Panel B: T maze test of WT and R6/2 mice at 13 weeks of age. […] Panel C: The curves of blood sugar in serum of WT and R6/2 mice treated as indicated. […] Panel D: Lifespan of WT and R6/2 mice treated with PBS vs. 8R10Q. 100% of R6/2 mice died before 16 weeks of age. […] WT mice N=6/group; R6/2 mice N=10/group; statistical analysis performed with two way ANOVA (panels A and C), one way ANOVA (panel B), *p<0.05; **p<0.01; ***p<0.001, ns: not significant, and log-rank (Mantel-Cox) Test (D), ***p<0.0001.
To test the therapeutic effect of the peptide in vivo, the 8R10Q peptide was delivered 6 days/week into the wild type (WT) or R6/2 transgenic mice through intranasal aspiration or continuously with the Alzet osmotic minipumps into the neostriatum. […] In fact, the 8R10Q-treated R6/2 mice performed even better than the 11 week-old PBS-treated mice on average. […] The R6/2 mice were previously reported to have diabetes. Bjorkqvist et al., Hum Mol Genet (2005) 14:565-74; and Hunt et al., Experimental Brain Res (2005) 166:220-9. […] To sum up, the 8R10Q peptide effectively delayed the onset of disease and ameliorated the pathological phenotypes.

[3] = test system: 109QmHtt; assay: Western blot of RIPA-soluble and -insoluble fractions of Neuro2a lysates; assay type: cell-based; conditions: peptide-treated samples
Description: as §1
For further characterization, Neuro2a lysates were separated into the RIPA-soluble (sol) and insoluble (ins) fractions ([…]). 8R10Q peptide decreased the level of mHtt in both the soluble and insoluble fractions as compared with water, 8R, or the scrambled (s8R10Q) control (FIG. 4, panel D). […]

[4] = test system: Neuro2a cells expressing 109QmHtt; assay: Cell growth curve of Neuro2a cells expressing 109QmHtt; assay type: cell-based, mouse; conditions: 109QmHtt with or without 12.5 μM H2O2; vs 8R or scrambled control
Description: (§2) FIG. 5. Therapeutic effect of 8R10Q and 8R15Q in 109QmHtt-expressing cells. Panel A: Cell viability assay by MTT in Neuro2a cells expressing 25QHtt (left) or 109QmHtt (right) treated with H2O2 at 50 μM and the indicated peptide. Panel B: Cell growth curve of Neuro2a cells expressing 25QHtt or 109QmHtt treated with indicated peptide. The cells in right subpanel were further treated with H2O2 at 12.5 μM 16 hours after transfection. 109QmHtt cells growth was slower than that of the 25QHtt cells. 8R10Q treatment rescued the slow growth of Neuro2a cells by 109QmHtt with or without H2O2. Panel C: Micrographs of the phase contrast and fluorescent images of retinoic acid-differentiated Neu2a cells expressing GFP-25QHtt or GFP-109QmHtt (GFP) treated with the indicated peptide. Note the neurites of the differentiated cells. Panel D: Quantitation of the percentage of differentiated cells with neurites. Fewer 109QmHtt-expressing cells had neurites vs. 25QHtt-expressing cells. […] The experiments were conducted in triplicate and repeated twice. Statistical analysis was performed with one way ANOVA, *p<0.05; **p<0.01; ***p<0.001, ns: not significant.
The expression of 109QmHtt reduced the growth of Neuro2a cells, and so did the lower levels of H2O2 (12.5 μM) (FIG. 5, panel B).

[5] = test system: Neuro2a cells expressing 109QmHtt; assay: Retinoic acid-induced neurite outgrowth; assay type: cell-based, mouse; conditions: 109QmHtt cells; vs water or scrambled control
Description: as §2
Retinoic acid (RA) induced the differentiation of Neuro2a cells with neurite outgrowth. 109QmHtt decreased the number of cells bearing RA-induced neurites relative to 25QHtt (FIG. 5, panels C and D).

## H-RRRRRRRRWDQQQQQQQQQQ-NH2 [Peptide 8R10Q, NH2-(R)8-W-D-(Q)10-CONH2]
[1]; 20 μM peptide added at 8 hours (T1) or 8 plus 24 hours (T1+T2) after transfection, vs water or 8R
  aggregated 109QmHtt by filter trap assay: significantly reduced
[1]; peptide added at 24 hours alone
  aggregated 109QmHtt by filter trap assay: no obvious effects
[2]; 13 week-old R6/2 mice, intranasal
  T maze test memory: corrected the memory deficit
[2]; Alzet osmotic minipumps into the neostriatum
  rotarod therapeutic effect, intracerebral delivery: very similar therapeutic effect to that given intranasally
[2]; R6/2 mice
  diabetic phenotype, inflammatory index and abnormal liver function: decreased
[2]; R6/2 mice, intracerebral
  diabetes phenotype: significantly corrected the diabetes phenotype
[2]; R6/2 mice, intranasal
  blood sugar: delayed the rise and decreased the level of blood sugar
[2]; R6/2 mice, intranasal, at 16 weeks of age
  prevention of premature death: 41%
[2]; R6/2 mice, intranasal, deterioration significant from 11 weeks with PBS
  age until which motor deterioration (rotarod) was delayed: 13 weeks
[2]; WT or R6/2 mice, intranasal or intracerebral route
  body weights: remained comparable to those treated with PBS
[3]
  ratio of the MG132:DMSO 109QmHtt: much higher
[4]
  cell growth: ameliorated the reduction in growth
[5]
  RA-induced neurite outgrowth: significantly reversed the defect in neurite outgrowth
